Assay results taken from US20130053395A1, “PYRAZOLOPYRIDINE KINASE INHIBITORS” (VERTEX PHARMACEUTICALS INCORPORATED, priority 2010, published 2013).
pKi: −log10 of the molar value.

Assays:
PKC theta kinase = PKC theta kinase (Homo sapiens, UniProt Q04759); test: PKC theta kinase coupled-enzyme (NADH) Ki assay; format: biochemical; conditions: 18 nM PKC theta, 240 μM ATP, 30° C., initial rate at 340 nM
Protocol: An assay buffer solution was prepared which consisted of 100 mM HEPES (pH 7.5), 10 mM MgCl2, 25 mM NaCl, 0.1 mM EDTA and 0.01% Brij. An enzyme buffer containing reagents to final assay concentrations of 0.00001% Triton X-100, 200 μg/mL Phosphatidylserine, 20 μg/mL Diacylglycerol, 360 μM NADH, 3 mM phosphoenolpyruvate, 70 μg/mL pyruvate kinase, 24 μg/mL lactate dehydrogenase, 2 mM DTT, 100 μM substrate peptide ([…] SEQ ID NO. 1) and 18 nM PKC theta kinase was prepared in assay buffer. To 60 μL of this enzyme buffer, in a 384 well plate, was added 2 μL of VRT stock solution in DMSO. The mixture was allowed to equilibrate for 10 mins at 30° C. The enzyme reaction was initiated by the addition of 5 μL stock ATP solution prepared in assay buffer to a final assay concentration of 240 μM. Initial rate data was determined from the rate of change of absorbance at 340 nm (corresponding to stoichiometric consumption of NADH) using a Molecular Devices Spectramax plate reader (Sunnyvale, Calif.) over 15 mins at 30° C. For each Ki determination 12 data points covering the VRT concentration range of 0-20 μM were obtained in duplicate (DMSO stocks were prepared from an initial 10 mM VRT stock with subsequent 1:2 serial dilutions). Ki values were calculated from initial rate data by non-linear regression using the Prism software package (Prism 4.0a, Graphpad Software, San Diego, Calif.).

PKC delta kinase = PKC delta kinase (Homo sapiens, UniProt Q05655); test: PKC delta kinase coupled-enzyme (NADH) Ki assay; format: biochemical; conditions: 46 nM PKC delta, 150 μM ATP, 30° C., initial rate at 340 nM
Sequence of PKC delta kinase (Q05655 whole entry): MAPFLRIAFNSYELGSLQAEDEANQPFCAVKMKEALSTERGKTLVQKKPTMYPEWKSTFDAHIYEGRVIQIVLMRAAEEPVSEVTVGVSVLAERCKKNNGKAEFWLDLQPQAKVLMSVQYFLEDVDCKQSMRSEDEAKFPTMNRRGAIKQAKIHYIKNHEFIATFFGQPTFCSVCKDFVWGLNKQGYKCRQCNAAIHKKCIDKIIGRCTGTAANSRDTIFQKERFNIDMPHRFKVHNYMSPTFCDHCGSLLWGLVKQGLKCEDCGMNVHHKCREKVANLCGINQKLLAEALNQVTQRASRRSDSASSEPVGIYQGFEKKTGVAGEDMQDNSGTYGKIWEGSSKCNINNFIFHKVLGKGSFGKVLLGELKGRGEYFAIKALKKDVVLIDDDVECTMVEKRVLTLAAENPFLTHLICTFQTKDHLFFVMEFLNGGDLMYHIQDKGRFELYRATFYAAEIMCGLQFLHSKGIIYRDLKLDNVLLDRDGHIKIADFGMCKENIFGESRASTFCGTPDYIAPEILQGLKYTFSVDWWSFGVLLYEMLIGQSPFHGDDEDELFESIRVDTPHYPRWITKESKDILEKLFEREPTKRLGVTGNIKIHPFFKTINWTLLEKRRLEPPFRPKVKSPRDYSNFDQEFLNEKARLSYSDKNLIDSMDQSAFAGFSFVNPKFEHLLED
Protocol: An assay buffer solution was prepared which consisted of 100 mM HEPES (pH 7.5), 10 mM MgCl2, 25 mM NaCl, 0.1 mM EDTA and 0.01% Brij. An enzyme buffer containing reagents to final assay concentrations of 0.002% Triton X-100, 200 μg/mL Phosphatidylserine, 20 μg/mL Diacylglycerol, 360 μM NADH, 3 mM phosphoenolpyruvate, 70 μg/mL pyruvate kinase, 24 μg/mL lactate dehydrogenase, 2 mM DTT, 150 μM substrate peptide ([…] SEQ ID NO. 2) and 46 nM PKC delta kinase was prepared in assay buffer. To 16 μL of this enzyme buffer, in a 384 well plate, was added 1 μL of VRT stock solution in DMSO. The mixture was allowed to equilibrate for 10 mins at 30° C. The enzyme reaction was initiated by the addition of 16 μL stock ATP solution prepared in assay buffer to a final assay concentration of 150 μM. Initial rate data was determined from the rate of change of absorbance at 340 nm (corresponding to stoichiometric consumption of NADH) using a Molecular Devices Spectramax plate reader (Sunnyvale, Calif.) over 15 mins at 30° C. For each Ki determination 12 data points covering the VRT concentration range of 0-20 μM were obtained in duplicate (DMSO stocks were prepared from an initial 10 mM VRT stock with subsequent 1:2 serial dilutions). Ki values were calculated from initial rate data by non-linear regression using the Prism software package (Prism 4.0a, Graphpad Software, San Diego, Calif.).

Sequence of PKC theta kinase (Q04759 whole entry): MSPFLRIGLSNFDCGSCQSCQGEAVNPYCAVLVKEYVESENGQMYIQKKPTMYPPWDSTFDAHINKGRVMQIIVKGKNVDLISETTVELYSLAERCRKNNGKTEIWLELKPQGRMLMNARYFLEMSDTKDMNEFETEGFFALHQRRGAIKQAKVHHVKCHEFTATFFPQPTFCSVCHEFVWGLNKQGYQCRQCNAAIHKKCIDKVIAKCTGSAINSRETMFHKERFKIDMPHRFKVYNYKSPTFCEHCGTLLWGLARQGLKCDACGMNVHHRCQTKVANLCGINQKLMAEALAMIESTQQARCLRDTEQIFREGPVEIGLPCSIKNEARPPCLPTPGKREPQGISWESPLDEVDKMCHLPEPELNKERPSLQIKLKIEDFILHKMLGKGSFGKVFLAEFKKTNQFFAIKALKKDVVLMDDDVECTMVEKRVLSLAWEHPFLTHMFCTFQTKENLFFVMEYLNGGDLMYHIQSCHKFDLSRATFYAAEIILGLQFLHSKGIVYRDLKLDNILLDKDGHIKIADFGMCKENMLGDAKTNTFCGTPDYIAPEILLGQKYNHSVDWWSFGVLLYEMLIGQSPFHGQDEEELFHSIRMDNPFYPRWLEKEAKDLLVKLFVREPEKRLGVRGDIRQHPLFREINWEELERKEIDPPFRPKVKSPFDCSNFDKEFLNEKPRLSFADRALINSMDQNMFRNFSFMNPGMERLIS

Row | SMILES | pKi (PKC theta kinase) | pKi (PKC delta kinase)
1 | CC(C)C[C@@H]1CN(c2nc(-c3n[nH]c4ncccc34)c(F)cc2F)CCN1 [Compound 7] | > 7.30 | –
2 | CC(C)C[C@@H]1CN(c2nc(-c3n[nH]c4ncccc34)c(F)cc2Cl)CCN1 [Compound 8] | > 7.30 | –
3 | OC[C@@H]1CN(c2nc(-c3n[nH]c4ncccc34)c(F)cc2Cl)CCN1 [Compound 9] | > 7.30 | > 7.30
4 | OC[C@@H]1CN(c2nc(-c3n[nH]c4ncccc34)c(F)cc2F)CCN1 [Compound 10] | > 6.30 | < 5.90
5 | CC(C)C[C@@H]1CN(c2nc(-c3n[nH]c4ncccc34)c(C#N)cc2F)CCN1 [Compound 11, (R)-5-fluoro-6-(3-isobutylpiperazin-1-yl)-2-(1H-pyrazolo[3,4-b]pyridin-3-yl)nicotinonitrile] | > 5.55 | < 5.90

The next lines start with the values.

Row | pKi (PKC theta kinase) | pKi (PKC delta kinase) | SMILES
6 | > 7.30 | > 6.30 | CC(C)(O)[C@@H]1CN(c2nc(-c3n[nH]c4ncccc34)c(F)cc2F)CCN1 [Compound 1, (S)-2-(4-(3,5-difluoro-6-(1H-pyrazolo[3,4-b]pyridin-3-yl)pyridin-2-yl)piperazin-2-yl)propan-2-ol]
7 | > 9.00 | > 6.30 | OC1(C2CN(c3nc(-c4n[nH]c5ncccc45)c(F)cc3F)CCN2)CCC1 (centres unmarked) [Compound 2]
8 | > 9.00 | > 6.30 | CCC(O)(CC)[C@@H]1CN(c2nc(-c3n[nH]c4ncccc34)c(F)cc2F)CCN1 [Compound 3]
9 | > 9.00 | > 7.30 | OC1([C@@H]2CN(c3nc(-c4n[nH]c5ncccc45)c(F)cc3Cl)CCN2)CC1 [Compound 4]
10 | > 9.00 | > 7.30 | CC(C)(O)[C@@H]1CN(c2nc(-c3n[nH]c4ncccc34)c(F)cc2Cl)CCN1 [Compound 5]
11 | > 9.00 | > 7.30 | OC1(C2CN(c3nc(-c4n[nH]c5ncccc45)c(F)cc3Cl)CCN2)CCC1 (centres unmarked) [Compound 6]
